According to US20050227296A1, “Method for indentifying integrin antagonists” (The General Hospital Corporation, a Massachusetts …, priority 1988, published 2005):
pIC50: −log10 of the molar value.

Assays:
[1] = target: CR3 (CD11b/CD18) expressed by normal human neutrophils (Homo sapiens, UniProt P11215); assay: EAiC3b binding to adherent neutrophils (CR3); assay type: cell-based
Method: Purification and adherence of human neutrophils: Neutrophils were purified as described by Boyum et al. (Scand. J. Clin. Lab. Med. 97(suppl.):77, 1968), resuspended in divalent-cation-free Tris-HCl-saline buffer, pH 7.4 at 5×10^7/ml and kept on ice until used. Neutrophils (2×10^5 cells/well) were allowed to adhere to 96-well plates in Iscov's Modified Medium for one hour at 37° C., in a humidified incubator with 5% CO2. The wells were then washed, and […] of fluoresceinated EAiC3b or EA (at 1.5×10^8/ml) were added in the presence of 3% BSA, in a total volume of […], followed by 15 min incubation at 37° C. with 5% CO2. Wells were then washed and fluorescence quantified as described above.
The ability of A7 to inhibit EAiC3b binding to CR3 (CD11b/CD18) expressed by normal human neutrophils was measured under conditions similar to those used in assessing EAiC3b binding to rA-domain. EAiC3b binding to neutrophils is primarily mediated by CR3, but can also occur in vitro through complement receptor type 1 (CR1). The effect of A7 on EAiC3b binding was tested in nearly isotonic conditions and in the presence of blocking concentrations of a polyclonal anti-CR1 antibody (Ross et al., J. Exp. Med. 158:334, 1983). […] These findings indicate that A7 is the major site in CR3 responsible for its interaction with iC3b.

gelatin = assay: A domain binding to gelatin
[2] = target: T1, biotinylated NIF binding to immobilized r11bA (Homo sapiens, UniProt P11215); assay: Inhibition of biotinylated NIF binding to immobilized r11bA
T1 construct: recombinant CD11b A domain (rCD11bA) and recombinant CD11a A domain (r11aA) were expressed as GST fusion proteins; GST (N); made in house; host or cells: Escherichia coli
Method: Immobilization of Recombinant Proteins and Polypeptide: Purified rA-domain preparations (1 μg/well), soluble CD54, human fibrinogen (Sigma Chemical Co., St. Loius, Mo.), gelatin (BioRad-Laboratories) or BSA (Calbiochem-Behring Corp.) (each at 10 μg/well) or selected A-domain-derived peptides (10 μg) were added to Immulon-2 96-well microtiter plates (Dynatech Labs, Chantilly, Va.) overnight. Quantitation of adsorbed wild-type and mutant A-domain and synthetic peptides was done using the mAb 44 in an ELISA, and the BCA kit (from Pierce Chemical Co., Rockford, Ill.), respectively. […]
Biotinylation of recombinant NIP and Measurement of Binding to Immobilized Peptides: Recombinant NIP was labeled with sulfo-NHS-biotin as described by the manufacturer (Pierce Chemical Co.). […] Wells were then washed, incubated with alkaline phosphatase-coupled avidin, washed again, developed with substrate and quantified colormetrically using a microplate reader. […] In experiments where the effects of divalent cations on biotinylated rNIF binding to immobilized rCD11b A-domain were measured, VBSG^−− buffer (veronal-buffered saline, pH=7.4, containing 0.1% gelatin) containing 1 mM of Ca^2+, Mg^2+, Mn^2+, EDTA, EGTA, EGTA plus 1 mM MgCl2, or 1 mM MnCl2. […]

[3] = tested on: biotinylated NIF binding to human neutrophils; assay: Inhibition of biotinylated NIF binding to neutrophils
Method: 100 μg of rNIF were labeled with sulfo-NHS-Biotin as described above. rNIF binding to resting or stimulated human neutrophils (pretreated with 10^−6 M f-met-leu-phe, for 15 minutes at 37° C., then washed) was measured. Increasing amounts of biotinylated rNIF in the absence or presence of 100-fold molar excess of unlabeled rNIF were incubated on ice for one hour with 1×10^6 neutrophils in VBSG^++ in a total volume of […]. Cells were then washed and incubated with phycoerythrin-coupled avidin (Sigma Chemical Co.) under similar conditions, washed again, fixed in 1% paraformaldehyde in PBS, and analyzed using FACScan (Becton Dickinson Co., Mountain View, Calif.). Mean channel fluorescence for each sample was then expressed as a function of the amount of biotinylated rNIF used. Background binding of phycoerythrin-streptavidin alone to neutrophils was subtracted (2.8 fluorescent units). Specific binding was obtained by […], and the values plotted according to Scatchard (Ann. N.Y. Acad. Sci. 51:660, 1949). To determine the effect of unlabeled fluid-phase-r11bA or GST on rNIF binding to neutrophils, each was preincubated at varying concentrations with biotinylated rNIF (20 ng/ml, final concentration) for 15 minutes on ice before addition of the mixture to neutrophils. The effect of mAbs on biotinylated NIF binding to neutrophils was assessed by preincubating the neutrophils with 100 μg/ml of each mAb at 4° C. for 15 minutes before addition of biotinylated NIF (20 ng/ml). The incubation then continued for one hour, followed by processing of cells for FACS analysis as described below.

Substance: r11bA: recombinant human CD11b A domain (Cys128 to Glu321), expressed as GST fusion protein, used as such or after thrombin cleavage
- concentrations required for inhibition of iC3b binding to leukocytes [1]: micromolar concentrations
- binding of the A domain to gelatin (gelatin): binds
- effect of fluid-phase protein on biotinylated rNIF binding to immobilized r11bA ([2]; dose dependent): abolished
- pIC50 ([2]; fluid-phase protein, read-out: half-maximal inhibition of biotinylated rNIF binding to immobilized r11bA): ~9.00
- concentration range inhibiting NIF binding to leukocytes [3]: low nM range
- effect of fluid-phase protein on biotinylated rNIF binding to human neutrophils ([3]; dose dependent): abolished
- pIC50 ([3]; fluid-phase protein, read-out: half-maximal inhibition of biotinylated rNIF binding to human neutrophils): ~9.00
